Experimental data reported in PubChem BioAssay (NCI).
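A five-concentration, 48-hour dose response in 96-well plates underlies each endpoint, interpolated linearly between surrounding concentrations. TGI: total growth inhibition.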

Tests used:
Assay in all cases: NCI tumour cell line growth inhibition, 48 h
SW-620 colon = system: SW-620 colon
CAKI-1 renal = system: CAKI-1 renal
SF-295 CNS = system: SF-295 CNS
DMS 114 small cell lung = system: DMS 114 small cell lung
LOX IMVI melanoma = system: LOX IMVI melanoma
SF-268 CNS = system: SF-268 CNS
RPMI-8226 leukemia = system: RPMI-8226 leukemia
ACHN renal = system: ACHN renal
SR leukemia = system: SR leukemia
OVCAR-5 ovarian = system: OVCAR-5 ovarian
LXFL 529 NSCLC = system: LXFL 529 NSCLC
SF-539 CNS = system: SF-539 CNS
NCI-H226 lung = system: NCI-H226 lung
SN12C renal = system: SN12C renal
SK-MEL-28 melanoma = system: SK-MEL-28 melanoma
HCT-15 colon = system: HCT-15 colon
A498 renal = system: A498 renal
UO-31 renal = system: UO-31 renal
A549 NSCLC = system: A549 NSCLC
HT29 colon = system: HT29 colon
NCI-H522 lung = system: NCI-H522 lung
SK-OV-3 ovarian = system: SK-OV-3 ovarian
TK-10 renal = system: TK-10 renal
CCRF-CEM leukemia = system: CCRF-CEM leukemia
SK-MEL-5 melanoma = system: SK-MEL-5 melanoma
U251 CNS = system: U251 CNS
IGROV1 ovarian = system: IGROV1 ovarian
UACC-62 melanoma = system: UACC-62 melanoma
HCC-2998 colon = system: HCC-2998 colon
UACC-257 melanoma = system: UACC-257 melanoma
DMS 273 small cell lung = system: DMS 273 small cell lung
M14 melanoma = system: M14 melanoma
K-562 leukemia = system: K-562 leukemia
OVCAR-3 ovarian = system: OVCAR-3 ovarian
HL-60(TB) leukemia = system: HL-60(TB) leukemia
HCT-116 colon = system: HCT-116 colon
COLO 205 colon = system: COLO 205 colon
786-0 renal = system: 786-0 renal
EKVX NSCLC = system: EKVX NSCLC
M19-MEL melanoma = system: M19-MEL melanoma
OVCAR-4 ovarian = system: OVCAR-4 ovarian
OVCAR-8 ovarian = system: OVCAR-8 ovarian
MOLT-4 leukemia = system: MOLT-4 leukemia
NCI-H23 lung = system: NCI-H23 lung
SNB-19 CNS = system: SNB-19 CNS
SNB-78 CNS = system: SNB-78 CNS
NCI-H460 lung = system: NCI-H460 lung
XF 498 CNS = system: XF 498 CNS
HOP-62 NSCLC = system: HOP-62 NSCLC
MALME-3M melanoma = system: MALME-3M melanoma
SK-MEL-2 melanoma = system: SK-MEL-2 melanoma
KM12 colon = system: KM12 colon
HOP-92 NSCLC = system: HOP-92 NSCLC
KM20L2 colon = system: KM20L2 colon
DLD-1 colon = system: DLD-1 colon
RXF 393 renal = system: RXF 393 renal
SNB-75 CNS = system: SNB-75 CNS

Measured: TGI

CCOC(=O)/C(=C/c1ccc(OC)cc1)N(CC)CC
not listed: DLD-1 colon | RXF 393 renal | SNB-75 CNS
> 100 µM: all other assays above

CON(C)C(=O)C(Cc1ccccc1)NC(=O)OCc1ccccc1 (stereo not drawn)
not listed: LOX IMVI melanoma | NCI-H226 lung | 786-0 renal
> 100 µM: all other assays above
